Experiments:
[1] = Gelation of 4-PEG-SH with OND linkers, gelation time by inversion test; type: physicochemical; details: neutral water, 17% DMSO, stoichiometric triethylamine added, room temperature
Procedure: PEG-OND hydrogels were prepared by mixing tetravalent thiol-terminated PEG (4-PEG-SH, Mw˜2,500 Da for each arm) at 3.5 weight percent and multivalent OND linkers at equimolar concentration of thiol and electrophile in phosphate buffer containing 7% DMSO by volume (FIG. 42). The reactions were mixed briefly and the gel was allowed to cure at temperature or 37° C. Gelation time was recorded as the point at which the sample no longer flowed upon inversion of the reaction vessel.
Trial gelations were performed by premixing a solution of linker 7a with four-armed thiol-terminated poly(ethylene glycol) (4-PEG-SH. Mn=10,000) in neutral water containing 17% DMSO by volume. The overall concentration of PEG macromer was varied from 0.4 wt % to 8.3 wt % while maintaining an equimolar ratio of thiol to electrophile. Under these conditions, no gels formed on standing at room temperature for five minutes.
Based on empirical observations made in these trials, subsequent gels were prepared at room temperature from 3.5 wt % 4-PEG-SH solutions in phosphate buffers containing 7% DMSO at equimolar concentrations of thiol and OND electrophile. Mixtures were mixed briefly with a vortex mixer, and the reaction vial was periodically tilted or inverted. Gelation time was recorded when the sample no longer flowed and was self-supporting. […] Gelation time at 37° C. was determined by pre-warming 4-PEG-SH macromer and OND stock solutions in a 37° C. water bath. Gel components were combined and mixed briefly by pipetting, and the sample was held in the water bath. Gelation time was determined by the inversion test, as described above.
The labeled protein solutions prepared as described in the previous section were diluted three-fold with pH 7.4 100 mM phosphate buffer and used to dissolve the 4-PEG-SH macromer at 3.76 wt %. This solution was used in an identical manner as pure 4-PEG-SH solution for the purpose of forming PEG-OND hydrogels (FIG. 45). All samples formed self-supporting hydrogels within 1 min after mixing, as determined by the inversion test.

[2] = Erosion of swollen hydrogels (BODIPY erosion probe, time-lapse photography); type: physicochemical; details: poorly controlled BODIPY labeling protocol
Text: Degradation behavior of PEG-OND hydrogels under swelling conditions was investigated by labeling 3% of the 4-PEG-SH thiols with a BODIPY fluorophore via maleimide coupling before gelation. Gels prepared from this material are expected to have slightly lower crosslink densities and to degrade sooner when compared to gels formed without the erosion probe (FIG. 19). However, the probe-labeled macromer allowed convenient monitoring and comparison of erosion behavior under conditions relevant for biological applications. An increase in absorbance (504 nm) of the swelling buffer was observed as pieces containing the labeled PEG-thiol components were detached from the gel by rDA fragmentation (FIG. 2). […] Using combinations of linkers, it was possible to produce hydrogels with release profiles tuned between those of gels prepared from a single linker (FIG. 2C).
The 3.76 wt % solution of BODIPY-labeled 4-PEG-SH prepared above was used to form hydrogels using a method identical to unlabeled gels. Briefly, BODIPY-labeled 4-PEG-SH was combined with DMSO stocks of multivalent ONDs at equimolar concentration of thiol and electrophile. […] The absorbance of the supernatant at 504 nm was measured immediately to obtain a baseline measurement (t=0 hours), and the samples were placed into a 37° C. incubator. The absorbance of the swelling supernatant was monitored periodically by removal of 1 mL of buffer into a cuvette and measuring absorbance of the sample at 504 nm. […] This process was repeated for each sample until gel degradation was complete and the absorbance at 504 nm stabilized (100% dye released). In order to estimate the fraction of dye released from the non-degradable gel formed with bi s-EONB 8, a mock endpoint sample consisting of BODIPY-labeled 4-PEG-SH diluted to 3.5 wt % was prepared, and the absorbance at 504 nm was measured. […] The absorbance values collected over the course of the experiment were divided by the absorbance value measured after gel disintegration to obtain fractional dye release versus time. […]
The time at which the glass bead reached the bottom of the tube was recorded. […]

| 4-PEG-SH concentration giving instantaneous gelation [1] | Structure (SMILES) | Dye released from gel made with multiply-labeled 4-PEG-SH macromer [2] |
| --- | --- | --- |
| > 2.5 wt % | COC(=O)C1=C(C(=O)OC)C2(CNC(=O)CCCC(=O)NCC34C=CC(O3)C(C(=O)OC)=C4C(=O)OC)C=CC1O2 [Linker 7a, Tetramethyl 1,1′-((glutaroylbis(azanediyl))bis(methylene))bis(7-oxabicyclo[2.2.1]hepta-2,5-diene-2,3-dicarboxylate)] | – |
| – | COC(=O)C1=C(C(=O)OC)C2(CNC(=O)CCCC(=O)NCC34OC(C(C(=O)OC)=C3C(=O)OC)C3OC34)OC1C1OC12 (centres unmarked) [Linker 8, Tetramethyl 1,1′-((glutaroylbis(azanediyl))bis(methylene))bis(3,8-dioxatricyclo[3.2.1.0^2,4]oct-6-ene-6,7-dicarboxylate)] | up to 50% |

Reference: patent US10517952B2, “Nucleophile-triggered degradable materials and methods of making and using the same” (GEORGIA TECH RESEARCH CORPORATION, priority 2014, dated 2019)
